# Source: patent US20220313780A1, “METHODS AND COMPOSITIONS FOR TREATING INFLAMMATORY CONDITIONS” (THE SCRIPPS RESEARCH INSTITUTE, priority 2019, published 2022)
# Test system: IL-1β
# Test: IL-1β release (Quantikine ELISA) from THP1 cells treated with LPS and ATP
# Assay type: cell-based, human
# Conditions: APC 4 μg/mL, TR47 50 μM, P3R 50 μM or TR47/P3R 8 nM & 500 nM for 1 hour before LPS and ATP
# Protocol: THP1 cells were plated at a final concentration of 1×10^6/mL in 96 well plates and incubated with PMA (0.5 μM) for 3 hours 37° C. in supplemented RPMI. Media was subsequently changed every 24 hours for 3 days. Selected wells were treated with APC (4 μg/mL), TR47 (50 μM), P3R (50 μM), or TR47/P3R (8 nM & 500 nM, respectively) for 1 hour, washed with DPBS, and incubated with LPS (1 μg/mL) for 3 hours at 37° C. in serum-free RPMI. Cells were washed with DPBS and incubated with ATP (5 mM) in the presence or absence of 10 μM YVAD (caspase 1 inhibitor) for 45 minutes, and the resulting cell supernatant was used in the IL-1(3 Quantikine ELISA following manufacturer's (R&D) directions measuring absorbance, and the concentration of IL-1(3 was calculated following measurement of the standard curve. Data points represent mean±SEM of at least 3 independent experiments. *P<0.05 (vs. LPS+ATP).
# […]. THP1 cells were plated at a final concentration of 1×10^6/mL in 96 well plates and incubated with PMA (0.5 μM) for 3 hours 37° C. in supplemented RPMI. […] Cell supernatants were carefully collected and frozen until assayed using the IL-1β Quantikine ELISA following the manufacturer's (R&D Systems) directions, measuring absorbance. The concentration of IL-1β was calculated following measurement of the standard curve according to the manufacturer's directions.
row,Sequence,generation and release of IL-1β
1,"GAPPNSFEEFPFSALEGWTGATIT [P3R, PAR3-derived 24-mer peptide]",significantly suppressed
2,"NPNDKYEPFWEDEEKNESGL [TR47, PAR1-derived 20 amino acid peptide]",significantly suppressed
